{"source": "patent US20230355622A1", "about": "“METHODS OF CHEMOVACCINATION AGAINST PLASMODIUM INFECTIONS” (Merck Sharp & Dohme LLC, priority 2020, published 2023)", "key": {"[1]": {"tested_on": "PbmCherryLuci sporozoites", "assay": "Immunity after chemovaccination with increasing numbers of sporozoites, BALB/c mice (FIG. 5-7)", "assay_type": "in vivo, Plasmodium berghei", "experimental": "To investigate how many sporozoites are required to develop immunity, female BALB/c mice (n=3/group) were infected intravenously (i.v.) with increasing numbers of PbmCherryLuci sporozoites and cured with 2×100 mg/kg doses of Example 1A. Three months later, the chemovaccinated mice were challenged with 10 PbmCherryLuci infected mosquito bites. […] Twelve months later, the chemovaccinated mice were challenged with 10 PbmCherryLuci infected mosquito bites."}, "[2]": {"tested_on": "PbmCherryLuci salivary gland sporozoites in HepG2 human hepatoma cells", "assay": "In vitro infection assay: immune serum inhibition of sporozoite infection of HepG2 cells (FIG. 3)", "assay_type": "cell-based, Plasmodium berghei", "settings": "serum of five BALB/c mice immunised ten months prior, 1 in 20 dilution, 48 h, versus naive serum", "experimental": "To initiate the in vitro infection assay, 30,000 HepG2 human hepatoma cells were seeded into a 96-well plate format the day before infection. The day of infection, freshly dissected PbmCherryLuci salivary gland sporozoites were incubated with a 1 in 20 dilution of either naïve BALB/c serum (from n=5 mice) or immune serum (from n=5 mice) in culture media and added to HepG2 wells in technical triplicate. Serum samples were not pooled, so the response from five individual mice was analysed independently. Forty-eight hours after infection the infected cells were fixed with 4% formaldehyde and imaged using an Opera Phenix High Content Imager (PerkinElmer). The number of parasites in each well was counted using the mCherry reporter expressed by these parasites, the average number of parasites between the technical triplicates averaged for each serum sample, and the average for each mouse presented."}, "[3]": {"tested_on": "P. berghei sporozoites expressing mCherry and Luciferase (PbmCherryLuci)", "assay": "Chemoprotection of BALB/c mice infected with PbmCherryLuci sporozoites (FIG. 1)", "assay_type": "in vivo, Plasmodium berghei", "settings": "female BALB/c mice, 40,000 sporozoites i.v.; treated twice by oral gavage at 36 and 48 hours during liver infection; 30 days monitoring", "experimental": "(§1) 40,000 PbmCherryLuci sporozoites (or the indicated number of sporozoites) were inoculated i.v. and compounds were administered by oral gavage at indicated time points during liver infection. Liver infection levels and egress of parasites from the liver were measured by bioluminescence signal from the parasites using an In Vivo Imaging System (IVIS, Perkin Elmer) at the peak of liver infection (52 hours post infection, hpi), during liver egress (55 hpi) as well as during the first round of blood infection (65 hpi). Initiation of blood infection was also measured by flow cytometry at 65 hpi using the mCherry reporter to determine the parasitemia of this first round of blood infection. These analyses allowed quantification of the efficacy of drug killing of parasites in the liver (52 hpi), preventing their egress from the liver (55 hpi) or preventing their successful infection of the blood (65 hpi). Mice were monitored by giemsa stained thin blood smears for the presence of parasites in the blood for 30 days post infection. If no blood infection was seen during the subsequent 30 days, mice were declared cured of malaria infection.\nMice were infected with 40,000 P. berghei sporozoites expressing mCherry and Luciferase (PbmCherryLuci) and treated with Example 1A as described above. […]"}, "[4]": {"tested_on": "PbmCherryLuci sporozoites", "assay": "Inhibition of liver to blood transition in C57BL/6 mice (FIG. 8)", "assay_type": "in vivo, Plasmodium berghei", "settings": "oral gavage during liver infection", "experimental": "as §1\nC57BL/6 mice were administered Example 1A or Example 75A as described in the general experimental procedure."}, "[5]": {"tested_on": "PMIX", "assay": "Cleavage of PMIX substrates RAP1 and ASP in parasite extracts", "assay_type": "cell-based, P. falciparum", "experimental": "To confirm that Example 1A was a dual inhibitor of PMIX and PMX function, the ability of this compound to inhibit cleavage of the known PMIX substrate Rhoptry Associated Protein 1 (RAPI) in parasite extracts was tested (Pino et al., 2017). RAP1 is a merozoite rhoptry protein that is localized to the parasitophorous vacuole after invasion and processed by both PMIX and SUB1 (Pino et al., 2017). […] RAP1 was not released into the parasite supernatant because it was deposited in the parasitophorous vacuole during the invasion process (Baldi, D., Andrews, K., Waller, R., Roos, D., Howard, R., Crabb, B. and Cowman, A. (2000)). RAP1 controls rhoptry targeting of RAP2 in the malaria parasite Plasmodium falciparum. Embo Journal 19, 2435-2443."}, "[6]": {"tested_on": "PbmCherryLuci", "assay": "Rechallenge of chemo-protected mice by mosquito bite infection at 6 and 12 months (FIG. 2A, 2B)", "assay_type": "in vivo, Plasmodium berghei", "settings": "15 infected mosquito bites", "excerpt": "Previously chemo-protected mice were rechallenged with PbmCherryLuci 6 months later by mosquito bite infection. […] In both experiments naïve, sex matched control mice all became infected as expected. Thus in addition to chemoprotection, Example IA could possibly act as a chemovaccination to protect against future infections for one year or more."}, "[7]": {"tested_on": "parasite", "assay": "Parasite LDH growth assay (Parasite Assay), antiparasite potency", "assay_type": "cell-based", "settings": "72 h", "procedure,_shortened": "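Growth was read by an LDH assay after a freeze–thaw cycle (−80 °C overnight, 4 h thaw at RT). Before that, parasites grew with compound for 72 h at 37 °C under gassed, humidified conditions. The input was a ring-stage culture adjusted to 0.7% parasitemia and 2% haematocrit in serum (5%)/albumax (0.5%)-supplemented RPMI-Hepes.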"}, "[8]": {"tested_on": "P. falciparum salivary gland sporozoites", "assay": "Chemoprophylaxis of humanised (FRG) mice infected with P. falciparum sporozoites (FIG. 10)", "assay_type": "in vivo", "settings": "FRG mouse with human hepatocytes, 300,000 sporozoites i.v.; four oral treatments 100 mg/kg at day 5, 5.5, 6, 6.5", "experimental": "Four immunocompromised mice engrafted with human hepatocytes (FRG mice, Yecuris, OR, USA) were each infected intravenously with 300,000 freshly dissected P. falciparum salivary gland sporozoites. Three mice received no treatment, while one mouse received four oral treatments with 100 mg/kg Example 1A during P. falciparum liver stage development (at day 5, day 5.5, day 6 and day 6.5 post infection). […] On day 7 post infection all mice were bled, and the blood cultured under standard culture conditions at 4% hematocrit with 1% oxygen. Fresh hematocrit was added to the cultures each week to provide fresh host cells for infection, and cultures were analysed for the presence of blood parasites 2-3 times per week by inspection of Giemsa-stained thin blood smears."}}, "note": "pEC50: −log10 of the molar value."}
{"smiles": "CCC1(CC)CC(=O)N(C2CCOc3ccc(C(=O)N[C@H]4CC(C)(C)Oc5ccccc54)cc32)C(=N)N1", "note": "(stereo partly drawn) [Example 1A, 4-(4,4-diethyl-2-imino-6-oxotetrahydropyrimidin-1(2H)-yl)-N—((S)-2,2-dimethylchroman-4-yl)chroman-6-carboxamide]", "values": [{"measurement": "mice with sterile protection from blood stage malaria infection", "setting": "[1]; BALB/c n=3/group, immunized with 500 sporozoites i.v., 2x100 mg/kg, 3-month challenge, 10 mosquito bites", "value": "1/3"}, {"measurement": "sterile protection from blood stage malaria infection", "setting": "[1]; challenge at 12 months (FIG. 7)", "value": "all mice showed sterile protection"}, {"measurement": "mice that developed malaria symptoms but showed partial immunity", "setting": "[1]; immunized with 500 sporozoites i.v., 2x100 mg/kg, 3-month challenge", "value": "2/3"}, {"measurement": "sterile protection from blood stage malaria infection", "setting": "[1]; immunized with 1,000 sporozoites i.v., 2x100 mg/kg, 3-month challenge", "value": "showed sterile protection from blood stage malaria infection"}, {"measurement": "sterile protection from blood stage malaria infection", "setting": "[1]; immunized with 40,000 sporozoites i.v., 2x100 mg/kg, 3-month challenge", "value": "showed sterile protection from blood stage malaria infection"}, {"measurement": "immunity on re-challenge", "setting": "[1]; mice immune at 3 months, re-challenged at 6 and 12 months post initial immunization", "value": "completely immune"}, {"measurement": "inhibition of HepG2 infection by immune serum", "setting": "[2]", "value": "inhibition of infection using the serum from each of the five immunised mice"}, {"measurement": "cure of infection / prevention of subsequent blood infection", "setting": "[3]", "value": "cured mice of infection"}, {"measurement": "infection of the blood", "setting": "[4]", "value": "completely prevented infection of the blood in all mice"}, {"measurement": "RAP1 processing by PMIX and SUB1", "setting": "[5]; treated parasites/merozoites, processed forms p82 and p69, unprocessed p87", "value": "only the unprocessed p87 form of RAP1 was present"}, {"measurement": "Apical Sushi Protein (ASP) processing by PMIX", "setting": "[5]; treated parasites, p47 processed, p87 full-length", "value": "cleavage event was inhibited"}, {"measurement": "immunity to reinfection challenge", "setting": "[6]; rechallenge 6 months later", "value": "all mice were subsequently immune"}, {"measurement": "mice fully protected on rechallenge", "setting": "[6]; rechallenge 12 months after chemoprotection", "value": "Four of five mice were again fully protected"}, {"measurement": "pEC50", "setting": "[7]", "value": 9.30}, {"measurement": "blood parasites in culture of blood taken day 7 post infection", "setting": "[8]", "value": "remained negative for blood parasites over an eight-week observation period"}]}
